A value given as a limit tells only on which side of the number the result lay.

In the assay the target is T1, human CaMKIIδ (Homo sapiens, UniProt Q13557).
T1 construct: Full-length, glutathione-S-transferase(GST)-tagged, human CaMKIIδ was purchased from Carna Biosciences; purchased Carna Biosciences (CaMKIIδ); Wako Pure Chemical Industries (calmodulin) 02-111
Put plainly: Evaluation of in vitro CaMKII inhibitory activity (binding assay, TR-FRET). The settings on record: human CaMKIIδ, TR-FRET binding assay; class symbols A/B/C; read-out: Act (CaMKII inhibitory activity, binding assay). In short, it runs like this:
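Inhibitors, in eight concentrations of 4-fold dilution, were incubated 1 h at room temperature with a protein–fluorescent probe premix preformed 30 min on ice, containing calmodulin and terbium anti-GST antibody. Displacement read by TR-FRET in duplicate; IC50 by logistic fitting.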
(In general: Time-resolved FRET reads energy transfer from a long-lived donor to a nearby acceptor.)
`C[C@@H](Cn1cnnn1)Oc1cccc(-c2ccn3ncc(-c4cccc(C(=O)NCCN5CCS(=O)(=O)CC5)c4)c3n2)c1` [compound 87]: the IC50 was < 10 nM.

As for `C[C@@H](Cn1cnnn1)Oc1cccc(-c2ccn3ncc(-c4cccc(C(=O)NC5CCN(C)C5)c4)c3n2)c1` (stereo partly drawn) [compound 88], the IC50 is < 10 nM.

As to `C[C@@H](Cn1cnnn1)Oc1cccc(-c2ccn3ncc(-c4cccc(C(=O)N5CCC(O)CC5)c4)c3n2)c1` [compound 89], the IC50 was 10 to 100 nM.

Consider `CC(=O)NCCNC(=O)c1cccc(-c2cnn3ccc(-c4cccc(O[C@@H](C)Cn5cnnn5)c4)nc23)c1` [compound 90], for which the IC50 was < 10 nM.

For `C[C@@H](Cn1cnnn1)Oc1cccc(-c2ccn3ncc(-c4cccc(C(=O)NCc5ccccc5)c4)c3n2)c1` [compound 91], the IC50 is < 10 nM.

Turning to `C[C@@H](Cn1cnnn1)Oc1cccc(-c2ccn3ncc(-c4cccc(C(=O)NCc5ccccn5)c4)c3n2)c1` [compound 92], the IC50 is < 10 nM.

Consider `C[C@@H](Cn1cnnn1)Oc1cccc(-c2ccn3ncc(-c4cccc(C(=O)NCc5ccncc5)c4)c3n2)c1` [compound 93], for which the IC50 is < 10 nM.

Take `C[C@@H](Cn1cnnn1)Oc1cccc(-c2ccn3ncc(-c4cccc(C(=O)NCc5cccnc5)c4)c3n2)c1` [compound 94]: the IC50 is < 10 nM.

Take `C[C@@H](Cn1cnnn1)Oc1cccc(-c2ccn3ncc(-c4cccc(C(=O)NCCn5ccnc5)c4)c3n2)c1` [compound 95]: the IC50 was < 10 nM.

As to `C[C@@H](Cn1cnnn1)Oc1cccc(-c2ccn3ncc(-c4cccc(C(=O)NCCn5cncn5)c4)c3n2)c1` [compound 96], the IC50 was < 10 nM.

In the case of `C[C@@H](Cn1cnnn1)Oc1cccc(-c2ccn3ncc(-c4cccc(C(=O)NC5CC(=O)N(C)C5)c4)c3n2)c1` (stereo partly drawn) [compound 97, N-(1-methyl-5-oxopyrrolidin-3-yl)-3-[5-(3-{[(2S)-1-(1H-tetrazol-1-yl)propan-2-yl]oxy}phenyl)pyrazolo[1,5-a]pyrimidin-3-yl]benzamide], the IC50 is < 10 nM.

Regarding `C[C@@H](Cn1cnnn1)Oc1cccc(-c2ccn3ncc(-c4cccc(C(=O)NC5CCN(C)CC5)c4)c3n2)c1` [compound 98], the IC50 was < 10 nM.

Turning to `C[C@@H](Cn1cnnn1)Oc1cccc(-c2ccn3ncc(-c4cccc(C(=O)N5CCC(C)(O)CC5)c4)c3n2)c1` [compound 99], the IC50 fell in the range of 10 to 100 nM.

For the molecule `C[C@@H](Cn1cnnn1)Oc1cccc(-c2ccn3ncc(-c4cccc(C(=O)NCC5CCOCC5)c4)c3n2)c1` [compound 100], the IC50 was < 10 nM.

Regarding `COC1CCN(C(=O)c2cccc(-c3cnn4ccc(-c5cccc(O[C@@H](C)Cn6cnnn6)c5)nc34)c2)CC1` [compound 101], the IC50 fell in the range of 10 to 100 nM.

Regarding `CC(=O)NCCCNC(=O)c1cccc(-c2cnn3ccc(-c4cccc(O[C@@H](C)Cn5cnnn5)c4)nc23)c1` [compound 102], the IC50 is < 10 nM.

On to `CCN(CC)CCNC(=O)c1cccc(-c2cnn3ccc(-c4cccc(O[C@@H](C)Cn5cnnn5)c4)nc23)c1` [compound 103], for which the IC50 was < 10 nM.

Regarding `C[C@@H](Cn1cnnn1)Oc1cccc(-c2ccn3ncc(-c4cccc(C(=O)NCCCCN(C)C)c4)c3n2)c1` [compound 104], the IC50 was < 10 nM.

For `C[C@@H](Cn1cnnn1)Oc1cccc(-c2ccn3ncc(-c4cccc(C(=O)NCCc5ccccc5)c4)c3n2)c1` [compound 105], the IC50 lay within 10 to 100 nM.

In the case of `C[C@@H](Cn1cnnn1)Oc1cccc(-c2ccn3ncc(-c4cccc(C(=O)NCCc5ccccn5)c4)c3n2)c1` [compound 106], the IC50 was < 10 nM.

Regarding `C[C@@H](Cn1cnnn1)Oc1cccc(-c2ccn3ncc(-c4cccc(C(=O)NCCc5ccncc5)c4)c3n2)c1` [compound 107], the IC50 was < 10 nM.

Take `C[C@@H](Cn1cnnn1)Oc1cccc(-c2ccn3ncc(-c4cccc(C(=O)NCCc5cccnc5)c4)c3n2)c1` [compound 108]: the IC50 was < 10 nM.

For `C[C@@H](Cn1cnnn1)Oc1cccc(-c2ccn3ncc(-c4cccc(C(=O)N5CCn6ccnc6C5)c4)c3n2)c1` [compound 109], the IC50 fell in the range of 10 to 100 nM.

For `C[C@@H](Cn1cnnn1)Oc1cccc(-c2ccn3ncc(-c4cccc(C(=O)N5CCn6ncnc6C5)c4)c3n2)c1` [compound 110], the IC50 was 10 to 100 nM.

Regarding `C[C@@H](Cn1cnnn1)Oc1cccc(-c2ccn3ncc(-c4cccc(C(=O)NCCC5CCCCC5)c4)c3n2)c1` [compound 111], the IC50 lay in the range of 10 to 100 nM.

In the case of `C[C@@H](Cn1cnnn1)Oc1cccc(-c2ccn3ncc(-c4cccc(C(=O)NC5CCN(C)C(=O)C5)c4)c3n2)c1` (stereo partly drawn) [compound 112], the IC50 is < 10 nM.

As to `C[C@@H](Cn1cnnn1)Oc1cccc(-c2ccn3ncc(-c4cccc(C(=O)NCCN5CCCC5=O)c4)c3n2)c1` [compound 113], the IC50 is < 10 nM.

For the molecule `C[C@@H](Cc1nnn[nH]1)Oc1cccc(-c2ccn3ncc(-c4cccs4)c3n2)c1` [compound 114], the IC50 is 10 to 100 nM.

`CNC(=O)c1cccc(-n2cnc3ccc(-c4ccc(F)c(O[C@@H](C)Cn5cnnn5)c4)nc32)c1` [compound 115]: the IC50 is < 10 nM.

Consider `CNC(=O)c1ccnc(-n2cnc3ccc(-c4ccc(F)c(O[C@@H](C)Cn5cnnn5)c4)nc32)c1` [compound 116], for which the IC50 is < 10 nM.

On to `CCN(CC)CCNC(=O)c1ccnc(-n2cnc3ccc(-c4ccc(F)c(O[C@@H](C)Cn5cnnn5)c4)nc32)c1` [compound 117], for which the IC50 is < 10 nM.

On to `C[C@@H](Cn1cnnn1)Oc1cc(-c2ccc3ncn(-c4cnn(C(=O)OC(C)(C)C)c4)c3n2)ccc1F` [compound 118], for which the IC50 is < 10 nM.

On to `C[C@@H](Cn1cnnn1)Oc1cc(-c2ccc3ncn(-c4cn[nH]c4)c3n2)ccc1F` [compound 119], for which the IC50 was < 10 nM.

On to `C[C@@H](Cn1cnnn1)Oc1cc(-c2ccc3ncn(-c4cnn(C)c4)c3n2)ccc1F` [compound 120], for which the IC50 lay within 10 to 100 nM.

For `C[C@@H](Cn1cnnn1)Oc1cc(-c2ccc3ncn(-c4ccn(C)n4)c3n2)ccc1F` [compound 122], the IC50 is < 10 nM.

On to `C[C@@H](Cn1cnnn1)Oc1cc(-c2ccn3ncc(-c4ccccc4C=O)c3n2)ccc1F` [compound 123], for which the IC50 is < 10 nM.

As to `C[C@@H](Cn1cnnn1)Oc1cc(-c2ccc3ncc(-c4cn(CC(=O)OCc5ccccc5)nc4C#N)n3n2)ccc1F` [compound 124], the IC50 was in the range of 10 to 100 nM.

`C[C@@H](Cn1cnnn1)Oc1cc(-c2ccc3ncc(-c4cn(CC(=O)O)nc4C#N)n3n2)ccc1F` [compound 125]: the IC50 is 10 to 100 nM.

With `COCCCNC(=O)Cn1cc(-c2cnc3ccc(-c4ccc(F)c(O[C@@H](C)Cn5cnnn5)c4)nn23)c(C#N)n1` [compound 126], the IC50 is > 100 nM.

As to `C[C@@H](Cn1cnnn1)Oc1cc(-c2ccc3ncc(-c4cn(CC(=O)NCCN5CCOCC5)nc4C#N)n3n2)ccc1F` [compound 127], the IC50 was > 100 nM.

Consider `COC(=O)c1cccc(-c2cnn3ccc(-c4ccc(F)c(O[C@@H](C)Cn5cnnn5)c4)nc23)c1Cl` [compound 128], for which the IC50 lay within 10 to 100 nM.

Consider `C[C@@H](Cn1cnnn1)Oc1cc(-c2ccn3ncc(-c4ccccc4C(F)(F)F)c3n2)ccc1F` [compound 129], for which the IC50 is > 100 nM.

In the case of `C[C@@H](Cn1cnnn1)Oc1cc(-c2ccn3ncc(-c4cccc(C(F)(F)F)c4)c3n2)ccc1F` [compound 130], the IC50 is 10 to 100 nM.

As to `C[C@@H](Cn1cnnn1)Oc1cc(-c2ccn3ncc(-c4cccc(C(F)F)c4)c3n2)ccc1F` [compound 131], the IC50 was < 10 nM.

As for `C[C@@H](Cn1cnnn1)Oc1cc(-c2ccn3ncc(-c4ccc(C(F)F)cc4)c3n2)ccc1F` [compound 132], the IC50 is 10 to 100 nM.

Regarding `C[C@@H](Cn1cnnn1)Oc1cc(-c2ccn3ncc(-c4ccccc4Cl)c3n2)ccc1F` [compound 133], the IC50 was in the range of 10 to 100 nM.

With `C[C@@H](Cn1cnnn1)Oc1cc(-c2ccn3ncc(-c4cccc(Cl)c4)c3n2)ccc1F` [compound 134], the IC50 was < 10 nM.

For the molecule `C[C@@H](Cn1cnnn1)Oc1cc(-c2ccn3ncc(-c4ccc(Cl)cc4)c3n2)ccc1F` [compound 135], the IC50 was in the range of 10 to 100 nM.

With `C[C@@H](Cn1cnnn1)Oc1cc(-c2ccn3ncc(-c4ccc(C#N)cc4)c3n2)ccc1F` [compound 136], the IC50 lay within 10 to 100 nM.

Regarding `C[C@@H](Cn1cnnn1)Oc1cc(-c2ccn3ncc(-c4cccnc4C#N)c3n2)ccc1F` [compound 137], the IC50 was < 10 nM.

Consider `C[C@@H](Cn1cnnn1)Oc1cc(-c2ccn3ncc(-c4cnccc4C#N)c3n2)ccc1F` [compound 138], for which the IC50 was < 10 nM.

Turning to `C[C@@H](Cn1cnnn1)Oc1cc(-c2ccn3ncc(-c4ccc(C#N)s4)c3n2)ccc1F` [compound 139], the IC50 was < 10 nM.

Take `COc1ccnc(-c2cnn3ccc(-c4ccc(F)c(O[C@@H](C)Cn5cnnn5)c4)nc23)c1` [compound 140]: the IC50 is 10 to 100 nM.

Take `Cc1ncc(-c2cnn3ccc(-c4ccc(F)c(O[C@@H](C)Cn5cnnn5)c4)nc23)s1` [compound 141]: the IC50 is < 10 nM.

Regarding `Cc1nn(C)cc1-c1cnn2ccc(-c3ccc(F)c(O[C@@H](C)Cn4cnnn4)c3)nc12` [compound 142], the IC50 fell in the range of 10 to 100 nM.

For `Cc1c(-c2cnn3ccc(-c4ccc(F)c(O[C@@H](C)Cn5cnnn5)c4)nc23)cnn1C` [compound 143], the IC50 is < 10 nM.

As to `C[C@@H](Cn1cnnn1)Oc1cc(-c2ccn3ncc(-c4cnn(C(F)F)c4)c3n2)ccc1F` [compound 144], the IC50 was < 10 nM.

As for `C[C@@H](Cn1cnnn1)Oc1cc(-c2ccn3ncc(-c4cnn(CCN5CCOCC5)c4)c3n2)ccc1F` [compound 145], the IC50 fell in the range of 10 to 100 nM.

Regarding `CCOC(=O)c1ccc(C#N)c(-c2cnc3ccc(-c4ccc(F)c(O[C@@H](C)Cn5cnnn5)c4)nn23)c1` [compound 146], the IC50 is < 10 nM.

Take `C[C@@H](Cn1cnnn1)Oc1cc(-c2ccc3ncc(-c4cc(C(=O)O)ccc4C#N)n3n2)ccc1F` [compound 147]: the IC50 lay within 10 to 100 nM.
